Experimental data taken from PubChem BioAssay AID1259407 (Chemical Carcinogenesis Research Information System (CCRIS), 2018).
Activity calls are given as the source filed them. The rule behind the calls is not given here.

Test system: CCRIS mutagenicity, Ames/micronucleus/aberration tests
Assay: CCRIS mutagenicity studies
[1] = Test System: AMES SALMONELLA TYPHIMURIUM, Strain/Indicator: TA98, Metabolic Activation: HAMSTER, LIVER, S-9, AROCLOR 1254, Method: PREINCUBATION
[2] = Test System: AMES SALMONELLA TYPHIMURIUM, Strain/Indicator: TA98, Metabolic Activation: NONE, Method: PREINCUBATION
[3] = Test System: AMES SALMONELLA TYPHIMURIUM, Strain/Indicator: TA98, Metabolic Activation: NONE, Method: STANDARD PLATE
[4] = Test System: AMES SALMONELLA TYPHIMURIUM, Strain/Indicator: TA98, Metabolic Activation: RAT, LIVER, S-9, AROCLOR 1254, Method: PREINCUBATION
[5] = Test System: AMES SALMONELLA TYPHIMURIUM, Strain/Indicator: TA100, Metabolic Activation: HAMSTER, LIVER, S-9, AROCLOR 1254, Method: PREINCUBATION
[6] = Test System: AMES SALMONELLA TYPHIMURIUM, Strain/Indicator: TA100, Metabolic Activation: NONE, Method: PREINCUBATION
[7] = Test System: AMES SALMONELLA TYPHIMURIUM, Strain/Indicator: TA100, Metabolic Activation: NONE, Method: STANDARD PLATE
[8] = Test System: AMES SALMONELLA TYPHIMURIUM, Strain/Indicator: TA100, Metabolic Activation: RAT, LIVER, S-9, AROCLOR 1254, Method: PREINCUBATION
[9] = Test System: AMES SALMONELLA TYPHIMURIUM, Strain/Indicator: TA1535, Metabolic Activation: HAMSTER, LIVER, S-9, AROCLOR 1254, Method: PREINCUBATION
[10] = Test System: AMES SALMONELLA TYPHIMURIUM, Strain/Indicator: TA1535, Metabolic Activation: NONE, Method: PREINCUBATION
[11] = Test System: AMES SALMONELLA TYPHIMURIUM, Strain/Indicator: TA1535, Metabolic Activation: RAT, LIVER, S-9, AROCLOR 1254, Method: PREINCUBATION
[12] = Test System: AMES SALMONELLA TYPHIMURIUM, Strain/Indicator: TA1537, Metabolic Activation: HAMSTER, LIVER, S-9, AROCLOR 1254, Method: PREINCUBATION
[13] = Test System: AMES SALMONELLA TYPHIMURIUM, Strain/Indicator: TA1537, Metabolic Activation: NONE, Method: PREINCUBATION
[14] = Test System: AMES SALMONELLA TYPHIMURIUM, Strain/Indicator: TA1537, Metabolic Activation: RAT, LIVER, S-9, AROCLOR 1254, Method: PREINCUBATION
[15] = Test System: AMES SALMONELLA TYPHIMURIUM, Strain/Indicator: TA1535, Metabolic Activation: NONE, Method: STANDARD PLATE
[16] = Test System: CHINESE HAMSTER V-79, Strain/Indicator: V-79/6-THIOGUANINE, Metabolic Activation: NONE, Method: FLASK ASSAY

Oc1c(Cl)c(Cl)c(Cl)c(Cl)c1Cl
mutagenic call (End Point: IN VITRO CHROMOSOMAL ABERRATIONS, Test System: CHINESE HAMSTER OVARY CELLS, Metabolic Activation: NONE): inactive; negative
mutagenic call (Test System: AMES SALMONELLA TYPHIMURIUM, Strain/Indicator: TA97A, Metabolic Activation: NONE, Method: STANDARD PLATE): inactive; negative
mutagenic call (Test System: AMES SALMONELLA TYPHIMURIUM, Strain/Indicator: TA97A, Metabolic Activation: RAT LIVER S-9, AROCLOR 1254, Method: STANDARD PLATE): inactive; negative
mutagenic call [1]: inactive; negative
mutagenic call [2]: inactive; negative
mutagenic call [3]: inactive; negative
mutagenic call (Test System: AMES SALMONELLA TYPHIMURIUM, Strain/Indicator: TA98, Metabolic Activation: RAT LIVER S-9, AROCLOR 1254, Method: STANDARD PLATE): inactive; negative
mutagenic call [4]: inactive; negative
mutagenic call (Test System: AMES SALMONELLA TYPHIMURIUM, Strain/Indicator: TA98, Metabolic Activation: RAT, LIVER, S-9, AROCLOR 1254, Method: STANDARD PLATE): active; positive
mutagenic call [5]: inactive; negative
mutagenic call [6]: inactive; negative
mutagenic call [7]: inactive; negative
mutagenic call (Test System: AMES SALMONELLA TYPHIMURIUM, Strain/Indicator: TA100, Metabolic Activation: RAT LIVER S-9, AROCLOR 1254, Method: STANDARD PLATE): inactive; negative
mutagenic call [8]: inactive; negative
mutagenic call [9]: inactive; negative
mutagenic call [10]: inactive; negative
mutagenic call [11]: inactive; negative
mutagenic call [12]: inactive; negative
mutagenic call [13]: inactive; negative
mutagenic call [14]: inactive; negative
mutagenic call (Test System: CHINESE HAMSTER V-79, Strain/Indicator: V-79/6-THIOGUANINE, Metabolic Activation: NONE, Method: STANDARD PLATE): inactive; negative
mutagenic call (Test System: CHINESE HAMSTER V-79, Strain/Indicator: V-79/6-THIOGUANINE, Metabolic Activation: PRIMARY RAT HEPATOCYTES, Method: STANDARD PLATE): inactive; negative

CCCN(N=O)C(N)=O
mutagenic call [15]: active; positive
mutagenic call [16]: active; positive
mutagenic call (Test System: E. COLI B, Strain/Indicator: H/R30R, Metabolic Activation: NONE): active; positive
mutagenic call (Test System: E. COLI B, Strain/Indicator: HS30R, Metabolic Activation: NONE): active; positive
mutagenic call (Test System: E. COLI, Strain/Indicator: WP2, Metabolic Activation: NONE, Method: STANDARD PLATE): active; positive
mutagenic call (Test System: E. COLI, Strain/Indicator: WP2 UVRA, Metabolic Activation: NONE, Method: STANDARD PLATE): active; positive

O=C(O)/C=C/C(=O)CC(=O)CC(=O)O
mutagenic call (Test System: CHINESE HAMSTER V-79, Strain/Indicator: V-79 (HGPRT)/6-THIOGUANINE, Metabolic Activation: NONE): active; positive

CC1=C(C(=O)OC(C)C)C(c2cccc([N+](=O)[O-])c2)C(C(=O)OC2CN(C(c3ccccc3)c3ccccc3)C2)=C(N)N1 (stereo not drawn)
mutagenic call [3]: inactive; negative
mutagenic call (Test System: AMES SALMONELLA TYPHIMURIUM, Strain/Indicator: TA98, Metabolic Activation: RAT LIVER S-9, Method: STANDARD PLATE): inactive; negative
mutagenic call [7]: inactive; negative
mutagenic call (Test System: AMES SALMONELLA TYPHIMURIUM, Strain/Indicator: TA100, Metabolic Activation: RAT LIVER S-9, Method: STANDARD PLATE): inactive; negative
mutagenic call [15]: inactive; negative
mutagenic call (Test System: AMES SALMONELLA TYPHIMURIUM, Strain/Indicator: TA1535, Metabolic Activation: RAT LIVER S-9, Method: STANDARD PLATE): inactive; negative
mutagenic call (Test System: AMES SALMONELLA TYPHIMURIUM, Strain/Indicator: TA1537, Metabolic Activation: NONE, Method: STANDARD PLATE): inactive; negative
mutagenic call (Test System: AMES SALMONELLA TYPHIMURIUM, Strain/Indicator: TA1537, Metabolic Activation: RAT LIVER S-9, Method: STANDARD PLATE): inactive; negative
mutagenic call (Test System: E.COLI, Strain/Indicator: WP2 UVRA, Metabolic Activation: NONE, Method: STANDARD PLATE): inactive; negative
mutagenic call (Test System: E.COLI, Strain/Indicator: WP2 UVRA, Metabolic Activation: RAT LIVER S-9, Method: STANDARD PLATE): inactive; negative

O=C(Cl)c1ccccc1C(=O)Cl
mutagenic call [2]: active; positive
mutagenic call (Test System: AMES SALMONELLA TYPHIMURIUM, Strain/Indicator: TA98, Metabolic Activation: RAT LIVER S-9, PCB, Method: PREINCUBATION): active; positive
mutagenic call [6]: active; positive
mutagenic call (Test System: AMES SALMONELLA TYPHIMURIUM, Strain/Indicator: TA100, Metabolic Activation: RAT LIVER S-9, PCB, Method: PREINCUBATION): active; positive
mutagenic call (Test System: AMES SALMONELLA TYPHIMURIUM, Strain/Indicator: TA104, Metabolic Activation: NONE, Method: PREINCUBATION): active; positive
mutagenic call (Test System: AMES SALMONELLA TYPHIMURIUM, Strain/Indicator: TA104, Metabolic Activation: RAT LIVER S-9, PCB, Method: PREINCUBATION): active; positive
mutagenic call (Test System: E.COLI, Strain/Indicator: WP2 UVRA, Metabolic Activation: NONE, Method: PREINCUBATION): active; positive
mutagenic call (Test System: E.COLI, Strain/Indicator: WP2 UVRA, Metabolic Activation: RAT LIVER S-9, PCB, Method: PREINCUBATION): active; positive

c1ccc2occc2c1
mutagenic call [1]: inactive; negative
mutagenic call [2]: inactive; negative
mutagenic call [4]: inactive; negative
mutagenic call [5]: inactive; negative
mutagenic call [6]: inactive; negative
mutagenic call [8]: inactive; negative
mutagenic call [9]: inactive; negative
mutagenic call [10]: inactive; negative
mutagenic call [11]: inactive; negative
mutagenic call [12]: inactive; negative
mutagenic call [13]: inactive; negative
mutagenic call [14]: inactive; negative
mutagenic call (Test System: MOUSE LYMPHOMA, Strain/Indicator: L5178Y (TK+/TK-), Metabolic Activation: NONE, Method: SUSPENSION/PLATE): active; positive

O=C(Cl)C(Cl)(Cl)Cl
mutagenic call (Test System: AMES SALMONELLA TYPHIMURIUM, Strain/Indicator: TA100, Metabolic Activation: NONE, Method: BAG VAPORIZATION): active; positive
mutagenic call (Test System: AMES SALMONELLA TYPHIMURIUM, Strain/Indicator: TA100, Metabolic Activation: RAT, LIVER, S-9, AROCLOR 1254, Method: BAG VAPORIZATION): active; positive

OCCN1CC1
mutagenic call [16]: active; positive

Nc1cccc2ncccc12
mutagenic call [2]: inactive; negative
mutagenic call (Test System: AMES SALMONELLA TYPHIMURIUM, Strain/Indicator: TA98, Metabolic Activation: RAT, LIVER, S-9, KANECHLOR 500 OR PHENOBARBITAL AND BETA-NAPHTHOFLAVONE, Method: PREINCUBATION): active; positive
mutagenic call [6]: inactive; negative
mutagenic call (Test System: AMES SALMONELLA TYPHIMURIUM, Strain/Indicator: TA100, Metabolic Activation: RAT, LIVER, S-9, KANECHLOR 500 OR PHENOBARBITAL AND BETA-NAPHTHOFLAVONE, Method: PREINCUBATION): active; positive
mutagenic call (Test System: AMES SALMONELLA TYPHIMURIUM, Strain/Indicator: TA100, Metabolic Activation: RAT, LIVER, S-9, PHENOBARBITAL AND 5,6-BENZOFLAVONE, Method: PREINCUBATION): active; positive
